Legend:
[1] = test system: normal human dermal fibroblasts (NHDF); assay: NHDF proliferation after transfer of supernatants from transfected HEK 293 cells, Alamar Blue; type: cell-based; conditions: 25 μl HEK 293 supernatant, 4 days, versus empty vector
Description: In order to investigate the cell type specificity of TBK-1, supernatants from transfected HEK 293 cells were also added to normal human dermal fibroblasts (NHDF). NHDF were seeded at 1,000 cells per well on 96-well tissue culture plates two days prior to the transfer in 100 μl complete Fibroblast Growth Medium (Promocell, Heidelberg). 24 h prior to the transfer the medium was changed to 100 μl Fibroblast Basal Medium (Promocell, Heidelberg) containing 75 μg/ml gentamycin, 50 ng/ml amphotericin B. After 25 μl of HEK 293 supernatant had been transferred, cells were incubated for 4 days and viable cell number was assessed by Alamar Blue reduction as above.

VEGF mRNA = assay: Hypoxia (CoCl2)-induced VEGF mRNA expression in HEK 293 cells after TBK-1 RNAi, quantitative RT-PCR relative to G6PDH; type: cell-based, human; conditions: 100 nM siRNA
Description: Real-time PCR was carried out using a LightCycler (Roche Diagnostics). Reactions were set up in microcapillary tubes using the following final concentrations: 0.5 μM each of VEGF sense (CTTGCCTTGCTGCTCTACCT) and VEGF antisense (GATTCTGCCCTCCTCCTTCT) primers, 3 mM MgCl2, 1×SYBR Greenmaster mix and 2 μl of cDNA. For TBK-1 0.5 μM each of TBK-1 sense (TTGAAGAGGAGACAACAACAAGA) and TBK-1 antisense (CAT TCC ACC CAC CAC ATC T) primers were used.
(§1) Cycling conditions for VEGF were as follows: denaturation (95° C. for 10 min), amplification and quantitation (95° C. for 10 s, 58° C. for 10 s and 72° C. for 13 s, with a single fluorescence measurement at the end of the 72° C. for 13 s segment) repeated 45 times. A melting curve program (55-95° C. with a heating rate of 0.1° C./s and continuous fluorescence measurement) and a cooling step to 40° C. followed. Cycling conditions for TBK-1 were identical.
(§2) For relative quantification the procedure was repeated for G6PDH mRNA as reference gene. Data were analyzed using LightCycler analysis software.
HEK 293 cells were transfected with double stranded RNAi oligos specific for TBK-1 using siPORT Amine according to the manufacture's protocol (Ambion Europe LTD, Cambridgeshire, United Kingdom). […] Under these conditions, increased expression of VEGF is observed and can be detected via VEGF ELISA (as shown in example 3). […]

TBK-1 mRNA = TBK-1 mRNA knock down by RNAi in HEK 293 cells, quantitative RT-PCR relative to G6PDH; type: cell-based, human; conditions: 100 nM siRNA
Description: Real-time PCR was carried out using a LightCycler (Roche Diagnostics). Reactions were set up in microcapillary tubes using the following final concentrations: 0.5 μM each of TBK-1 sense (TTGAAGAGGAGACAACAACAAGA) and TBK-1 antisense (CAT TCC ACC CAC CAC ATC T) primers, 3 mM MgCl2, 1×SYBR Greenmaster mix and 2 μl of cDNA.
as §1, with “TBK-1” for “VEGF”, “followed.” for “followed. Cycling conditions for TBK-1 were identical.”
as §2
HEK 293 cells were transfected with double stranded RNAi oligos specific for TBK-1 using siPORT Amine according to the manufacture's protocol (Ambion Europe LTD, Cambridgeshire, United Kingdom). […] Under these conditions, increased expression of VEGF is observed and can be detected via VEGF ELISA (as shown in example 3).
To determine the functionality of the RNAi molecule regarding inhibition of TBK-1 expression, relative expression levels of TBK-1 mRNAs were analysed by quantitative real-time PCR. […]

Substance | stimulation of NHDF proliferation [1] | induction of VEGF mRNA under hypoxia (VEGF mRNA) | inhibition of expression of TBK-1 mRNA (TBK-1 mRNA) [%]
FGF-2 | clearly responsive |  | 
TBK-1 RNAi: double stranded RNAi oligo specific for TBK-1: sense GGA GAC AAC AAC AAG ACA Utt, antisense AUG UCU UGU UGU UGU CUC Ctc (sense GGAGACAACAACAAGACAU; antisense AUGUCUUGUUGUUGUCUCCC; listed as RNA, chemistry not given here) |  | significantly reduces | > 85
